# Data reported in US20250262305A1 (Aegis Therapeutics, LLC, priority 2018, published 2025).
# Where two headings read alike, the source gives them in different places.
# Tests used:
# clinical = conditions: human, in vivo, pH 4, tmax
# Description: Study Design. A Phase 1, open-label, randomized, single-dose, two-treatment, crossover study was carried out that consisted of a screening period, baseline period, and an open-label treatment period. In the screening period, subjects underwent screening within 21 days prior to entering into the open-label treatment phase of the study.
# Safety assessments were performed on each study day and subjects released after discharge assessments on Day 1. Subjects were followed for 6 hours after the administration of the last dose of study drug.
# Plasma samples from all subjects that completed two periods of the study were analyzed. […] Actual sampling times were recorded.
# (§1) Study Drugs and Administration.
# (§2) Each 100 μL spray was administered to the left nostril via a commercially-available multiple dose nasal spray device marketed by Aptar Pharma. Priming of the device (activation 5 times) was done in a hood or priming box within 30 minutes prior to dosing the subject.
# (§3) Pharmacokinetic Analysis.
# Non-GCP pharmacokinetic analysis was performed using WinNonlin version 7.0. […] Baseline corrected Cmax was calculated from the uncorrected Cmax−PreDose concentration. Baseline corrected AUC0-t was calculated from the uncorrected AUC0-t−PreDose concentration×tlast. […] The point estimates and confidence limits will be exponentiated back to the original scale.
# [1] = cited from earlier work; for Cbaseline: Mean ± SD
# [2] = male, human, in vivo
# Description: In the Screening Period, subjects underwent screening within 28 days prior to entering into the study.
# as §1, §2
# Participants. […] Plasma samples from all subjects that complete the study were analyzed.
# as §3
# [3] = single 0.3 mg doses, intranasal and intramuscular; healthy volunteers
# Description: Safety. […] Other safety measures included vital sign measurement. Objective evaluations of nasal irritation were assessed after each administration of study drug using a 6-point (0->5) score. […] Irritation was assessed by evaluating the degree of mucosal inflammation and bleeding. The subjects were required to report any incident of bleeding or inflammation in-between the actual evaluation time points.
# The ends of the scale were defined as extreme limits of pain sensation: 0=no pain, 10=extreme pain. The subjects were asked to mark a point on the scale which best describes their intensity of pain and discomfort just prior to dosing (baseline) and at 15 (±2 min) and 30 (±5 min) minutes, and 1 (±10 min) hour post dose. The location of the marking at each time point was measured and noted as the reported score.
structure (smiles),measurement,setting,value
"CNC[C@H](O)c1ccc(O)c(O)c1 [Epinephrine, (R)-4-(1-Hydroxy-2-(methylamino)ethyl)benzene-1,2-diol]",Tmax,clinical,53 min
same,Cbaseline,[1]; Intramuscular (IM) 0.3 mg,35 ± 23 pg/mL
same,Cbaseline,[1]; Intranasal (IN) 5 mg,8 ± 6 pg/mL
same,clearance from the plasma,[1]; Srisawat's 5 mg intranasal formulation (FIG. 2),cleared from the plasma almost entirely in about two hours
same,blood level of epinephrine,[1]; intranasal dose level of 2.5 mg and below,no blood level of epinephrine
same,systemic absorption of epinephrine via the IN route,"[1]; intranasal, dose range of Srisawat (FIG. 1)",significant systemic absorption of epinephrine via the IN route was observed only at 5 mg
same,rate of absorption,[2],"rapid, IM-injection-like rate of absorption in the first 20 minutes"
same,adverse events,[3],no related adverse events reported
